Laboratory results taken from ChEMBL document CHEMBL1201862, “PubChem BioAssay data set” (2004).
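How tested: cells in 96-well plates exposed to compound for 48 hours at five concentrations. At the GI50, growth is halved.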 Activity calls are given as the source filed them. Cut-off read from the data, not from the text of the source: active = GI50 up to about 1.1 µM and inactive = higher.

What was measured:
Assay in all cases: DTP human tumour cell line panel, 48 h
ACHN = tested on: ACHN
RXF 393 = tested on: RXF 393
SNB-19 = tested on: SNB-19
MDA-MB-231 = tested on: MDA-MB-231
BT-549 = tested on: BT-549
MDA-MB-435 = tested on: MDA-MB-435
OVCAR-4 = tested on: OVCAR-4
HOP-62 = tested on: HOP-62
DU-145 = tested on: DU-145
SK-OV-3 = tested on: SK-OV-3
EKVX = tested on: EKVX
SF-539 = tested on: SF-539
KM12 = tested on: KM12
LOX IMVI = tested on: LOX IMVI
UACC-62 = tested on: UACC-62
NCI/ADR-RES = tested on: NCI/ADR-RES
OVCAR-3 = tested on: OVCAR-3
CAKI-1 = tested on: CAKI-1
COLO 205 = tested on: COLO 205
SK-MEL-2 = tested on: SK-MEL-2

Measured: GI50

Cc1nn2c(C(=O)N/N=C/c3ccc([N+](=O)[O-])cc3)c(C)nc2s1
inactive: ACHN 50 µM | RXF 393 > 100 µM | SNB-19 45.9 µM | MDA-MB-231 24.1 µM | BT-549 > 100 µM | MDA-MB-435 > 100 µM | OVCAR-4 > 100 µM | HOP-62 46.5 µM | DU-145 > 100 µM | SK-OV-3 28.4 µM | EKVX > 100 µM | SF-539 31.4 µM | KM12 > 100 µM | LOX IMVI > 100 µM | UACC-62 > 100 µM | NCI/ADR-RES > 100 µM | OVCAR-3 > 100 µM | CAKI-1 > 100 µM | COLO 205 > 100 µM

CCOC(=O)c1nnsc1NC(=O)NCCCCCCn1c(=O)n(CCCCCCNC(=O)Nc2snnc2C(=O)OCC)c(=O)n(CCCCCCNC(=O)Nc2snnc2C(=O)OCC)c1=O
inactive: ACHN 47 µM | RXF 393 13.5 µM | SNB-19 18.6 µM | MDA-MB-231 15.2 µM | BT-549 33 µM | MDA-MB-435 63.7 µM | OVCAR-4 80 µM | HOP-62 25.4 µM | DU-145 49.3 µM | SK-OV-3 40.2 µM | EKVX 60.4 µM | SK-MEL-2 > 100 µM | KM12 93.3 µM | UACC-62 17.3 µM | NCI/ADR-RES > 100 µM | OVCAR-3 57.8 µM | CAKI-1 76.9 µM | COLO 205 > 100 µM

CCOC(=O)C1CCCC1S(=O)(=O)c1ccc(C)cc1 (stereo not given)
inactive: ACHN > 100 µM | RXF 393 > 100 µM | SNB-19 > 100 µM | MDA-MB-231 > 100 µM | BT-549 > 100 µM | MDA-MB-435 79.4 µM | OVCAR-4 > 100 µM | HOP-62 > 100 µM | DU-145 > 100 µM | SK-OV-3 > 100 µM | EKVX > 100 µM | KM12 > 100 µM | LOX IMVI > 100 µM | UACC-62 > 100 µM | NCI/ADR-RES > 100 µM | OVCAR-3 > 100 µM | CAKI-1 > 100 µM | COLO 205 > 100 µM

C=C1C(=O)O[C@H]2C[C@@H]1C(=O)CC(C)CCCC(C)=CCC[C@@]2(C)O (stereo not given in full)
inactive: ACHN > 25 µM | RXF 393 > 25 µM | SNB-19 > 25 µM | MDA-MB-231 > 25 µM | BT-549 > 25 µM | MDA-MB-435 > 25 µM | OVCAR-4 > 25 µM | HOP-62 > 25 µM | DU-145 > 25 µM | SK-OV-3 > 25 µM | EKVX > 25 µM | SK-MEL-2 > 25 µM | SF-539 > 25 µM | KM12 > 25 µM | LOX IMVI > 25 µM | UACC-62 > 25 µM | NCI/ADR-RES > 25 µM | OVCAR-3 > 25 µM | COLO 205 > 25 µM

CCOC(=O)C(=O)C(=O)NN(C)C1=NCCN1
inactive: ACHN > 100 µM | RXF 393 > 100 µM | SNB-19 > 100 µM | MDA-MB-231 > 100 µM | BT-549 > 100 µM | MDA-MB-435 > 100 µM | OVCAR-4 > 100 µM | HOP-62 > 100 µM | DU-145 > 100 µM | SK-OV-3 > 100 µM | EKVX > 100 µM | SK-MEL-2 > 100 µM | SF-539 > 100 µM | KM12 > 100 µM | LOX IMVI > 100 µM | UACC-62 > 100 µM | NCI/ADR-RES > 100 µM | OVCAR-3 > 100 µM | COLO 205 > 100 µM

CN(C)c1ccc(/C=C2\Oc3cc(O)ccc3C2=O)cc1
inactive: ACHN > 100 µM | RXF 393 > 100 µM | SNB-19 > 100 µM | MDA-MB-231 53.1 µM | BT-549 65.8 µM | MDA-MB-435 36.9 µM | OVCAR-4 > 100 µM | HOP-62 > 100 µM | DU-145 > 100 µM | SK-OV-3 > 100 µM | EKVX > 100 µM | SF-539 > 100 µM | KM12 61.2 µM | UACC-62 > 100 µM | NCI/ADR-RES 83.4 µM | OVCAR-3 38.7 µM | CAKI-1 > 100 µM | COLO 205 > 100 µM

CC1=C2C(=O)NN=C2CCN1c1ccc(Br)cc1
inactive: ACHN > 100 µM | SNB-19 > 100 µM | MDA-MB-231 > 100 µM | BT-549 3.14 µM | MDA-MB-435 > 100 µM | OVCAR-4 > 100 µM | HOP-62 > 100 µM | DU-145 > 100 µM | SK-OV-3 > 100 µM | EKVX > 100 µM | SK-MEL-2 > 100 µM | SF-539 > 100 µM | KM12 > 100 µM | LOX IMVI 62.8 µM | UACC-62 > 100 µM | NCI/ADR-RES > 100 µM | OVCAR-3 > 100 µM | CAKI-1 > 100 µM | COLO 205 > 100 µM

COC(=O)n1c(=O)n(-c2ccccc2)c(=O)n1C(=O)Nc1ccccc1
inactive: ACHN > 100 µM | RXF 393 > 100 µM | SNB-19 > 100 µM | MDA-MB-231 > 100 µM | BT-549 > 100 µM | MDA-MB-435 > 100 µM | OVCAR-4 3.42 µM | HOP-62 > 100 µM | DU-145 > 100 µM | SK-OV-3 > 100 µM | EKVX > 100 µM | SK-MEL-2 > 100 µM | KM12 > 100 µM | LOX IMVI > 100 µM | UACC-62 > 100 µM | NCI/ADR-RES > 100 µM | OVCAR-3 > 100 µM | CAKI-1 > 100 µM | COLO 205 > 100 µM

Cc1nc2ccc(NC(=S)Nc3ccccc3)cc2c(=O)n1-c1ccccc1
inactive: ACHN > 100 µM | RXF 393 > 100 µM | SNB-19 > 100 µM | MDA-MB-231 > 100 µM | BT-549 > 100 µM | MDA-MB-435 > 100 µM | OVCAR-4 > 100 µM | HOP-62 > 100 µM | DU-145 > 100 µM | EKVX > 100 µM | SK-MEL-2 16.6 µM | KM12 > 100 µM | LOX IMVI > 100 µM | UACC-62 > 100 µM | NCI/ADR-RES > 100 µM | OVCAR-3 > 100 µM | CAKI-1 > 100 µM | COLO 205 80.4 µM

CCn1c(SCC(=O)NNC(=S)Nc2ccc(C)cc2)nc2ccccc2c1=O
inactive: ACHN > 100 µM | RXF 393 > 100 µM | SNB-19 > 100 µM | MDA-MB-231 > 100 µM | BT-549 > 100 µM | MDA-MB-435 > 100 µM | OVCAR-4 78.9 µM | HOP-62 > 100 µM | DU-145 > 100 µM | SK-OV-3 > 100 µM | EKVX > 100 µM | SK-MEL-2 > 100 µM | SF-539 > 100 µM | KM12 > 100 µM | LOX IMVI > 100 µM | UACC-62 > 100 µM | NCI/ADR-RES > 100 µM | OVCAR-3 > 100 µM | COLO 205 > 100 µM

CN1C/C(=C\c2cccs2)C(O)/C(=C/c2cccs2)C1 (stereo not given)
inactive: ACHN > 100 µM | RXF 393 > 100 µM | SNB-19 > 100 µM | MDA-MB-231 > 100 µM | BT-549 > 100 µM | MDA-MB-435 > 100 µM | OVCAR-4 35.5 µM | HOP-62 > 100 µM | DU-145 > 100 µM | SK-OV-3 > 100 µM | EKVX > 100 µM | SK-MEL-2 > 100 µM | KM12 > 100 µM | LOX IMVI > 100 µM | UACC-62 > 100 µM | NCI/ADR-RES > 100 µM | OVCAR-3 > 100 µM | CAKI-1 97.5 µM | COLO 205 87.1 µM
